Measured values taken from ChEMBL document CHEMBL1130937, “Stereoselective synthesis of a novel and bifunctional endothelin antagonist, IRL 3630” (Bioorg Med Chem Lett, 1998).

Legend:
[1] = biological target: T1, Endothelin receptor type B (Homo sapiens, UniProt P24530); test: Compound was tested for the binding affinity against Endothelin B receptor
T1 sequence (P24530 whole entry): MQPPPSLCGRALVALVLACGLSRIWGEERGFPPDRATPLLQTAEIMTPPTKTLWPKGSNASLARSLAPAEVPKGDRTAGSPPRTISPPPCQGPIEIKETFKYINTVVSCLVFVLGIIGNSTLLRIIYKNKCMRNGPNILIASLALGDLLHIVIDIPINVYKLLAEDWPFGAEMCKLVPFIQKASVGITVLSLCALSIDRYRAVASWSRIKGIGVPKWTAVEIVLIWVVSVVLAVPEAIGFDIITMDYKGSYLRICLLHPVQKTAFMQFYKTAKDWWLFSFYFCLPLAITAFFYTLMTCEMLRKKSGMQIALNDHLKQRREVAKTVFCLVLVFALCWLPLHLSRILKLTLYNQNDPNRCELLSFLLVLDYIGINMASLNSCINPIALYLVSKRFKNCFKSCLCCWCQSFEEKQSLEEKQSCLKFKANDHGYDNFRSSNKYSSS

Endothelin-1 receptor = biological target: T2, Endothelin-1 receptor (Homo sapiens, UniProt P25101); test: Compound was tested for the binding affinity against Endothelin A receptor
T2 sequence (P25101 whole entry): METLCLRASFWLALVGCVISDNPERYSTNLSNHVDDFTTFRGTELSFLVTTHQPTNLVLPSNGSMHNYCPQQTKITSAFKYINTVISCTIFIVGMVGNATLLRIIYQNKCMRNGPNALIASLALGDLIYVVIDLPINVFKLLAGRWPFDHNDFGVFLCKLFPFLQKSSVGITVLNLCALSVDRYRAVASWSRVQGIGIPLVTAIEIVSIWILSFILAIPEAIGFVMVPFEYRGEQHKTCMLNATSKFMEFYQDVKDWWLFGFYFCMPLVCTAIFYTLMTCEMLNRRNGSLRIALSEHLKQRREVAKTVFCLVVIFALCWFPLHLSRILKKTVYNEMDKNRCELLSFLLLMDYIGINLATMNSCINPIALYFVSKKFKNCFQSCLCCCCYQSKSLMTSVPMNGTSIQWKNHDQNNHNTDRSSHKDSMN

| Ki [1] | Ki (Endothelin-1 receptor) | SMILES |
| --- | --- | --- |
| 1.2 µM | 6.8 µM | CCCCS(=O)(=O)NC(=O)[C@@H](NC(=O)[C@H](Cc1ccc(-c2ccno2)cc1)N(C)C(=O)c1cc(C)cc(C)c1)C(C)C |
| 0.024 µM | 0.85 µM | CCCCS(=O)(=O)NC(=O)[C@H](NC(=O)[C@@H](Cc1ccc(-c2ccno2)cc1)N(C)C(=O)c1cc(C)cc(C)c1)C(C)C |
| – | 0.0015 µM | CCCCS(=O)(=O)NC(=O)[C@@H](NC(=O)[C@@H](Cc1ccc(-c2ccno2)cc1)N(C)C(=O)c1cc(C)cc(C)c1)C(C)C |
| 1.2 µM | 27 µM | CCCCS(=O)(=O)NC(=O)[C@H](NC(=O)[C@H](Cc1ccc(-c2ccno2)cc1)N(C)C(=O)c1cc(C)cc(C)c1)C(C)C |
